The values below come from patent US12194201B2, “Silica nanoparticle doped conductive polymer” (University of Pittsburgh—Of the Commonwealth System of …, priority 2019, dated 2025).

One series relates to neural activity. The series is described as follows: In vivo DNQX release from PEDOT/SNP coated carbon fiber electrode, GCaMP imaging. Particulars: DNQX loaded PEDOT/SNP on carbon fiber electrode, reducing potential, GCaMP mouse. An excerpt:
Next, we aimed to modulate cellular activity by release of the glutamate AMPA/Kainate receptor antagonist 6,7-dinitroquinoxaiine-2,3-dione (DNQX). DNQX is a small, negatively charged compound that blocks glutamate transmission. We have previously observed that DNQX may be loaded and electrically released from PEDOT/CNT films in vivo and produce a transient (<6 second) inhibition of sensory evoked neural activity recorded in barrel cortex of rats.^[9] In this study, DNQX release from PEDOT/SNP was assessed using a GCaMP mouse model. The GCaMP fluorescence is tied directly to intracellular calcium activity, such that when neurons fire action potentials, the calcium influx cause GCaMP to produce a bright green fluorescence. […]
All animal work was performed under the guidelines of the University of Pittsburgh Institutional Animal Care and Use Committee (IACUC). […] First, a 2-minute baseline was recorded. […] Following 10 cycles of stimulation, a final 2-minute baseline recording was performed Calculations of fluorescence are made by first masking the electrode. A background fluorescence was determined by averaging all frames together, allowing for representation of small time windows as the % change vs the background intensity as shown below.
The inter-pulse fluorescence was determined by Δf during the reducing voltage, and comparing this to the Δf during the prior oxidative voltage (V>−0.2).

Series [1] deals with sensory evoked neural activity recorded in barrel cortex. Conditions: released from PEDOT/CNT films, rat barrel cortex; cited from earlier work.
Series [2] is described as follows: Dox release from PEDOT/SNP film into serum free DMEM. The format is physicochemical. The procedure: (§1) Electrochemical methods of drug release may alter the activity of a compound due to the applied potentials, and it is therefore important to verify that the loading and release process doesn't compromise the drug's bioactivity. […] For Dox, a potent chemotherapeutic, release was performed for 0 (passive diffusion for 24 hours), 20, or 200 cycles into serum free DMEM. A small amount of diffusion release was observed from Dox loaded electrodes, as measured by absorbance at […]. […] Released Dox was introduced to cultured 3T3 mouse fibroblast cells (FIG. 7B) and the toxicity was compared to freshly prepared Dox solution at the same concentration. After a 3-day incubation period, the viability of the 3T3 cells was evaluated with the XTT assay. […] Therefore, even though we detected a minute amount of Dox in the diffusion control, this quantity is below the toxic level.
5 mg of mesoporous SNP were sonicated with 200 μl of drug solution for 20 minutes prior to the particles being collected by centrifuge and dried under vacuum.
5 mg of drug loaded particles were suspended in 3 ml of EDOT (0.01M) solution in water. Electropolymerization was carried out for 200 seconds on 2 mm diameter gold electrodes or 70 μm diameter Pt/Ir wires (A-M systems, 90/10 Pt/Ir). Electrodes were then washed with PBS on an orbital shaker for 2 hours then soaked overnight to remove any adsorbed drugs.

The test system of series [3] is 3T3 mouse fibroblast cells. The series is described as follows: 3T3 viability (XTT) after incubation with released Dox. The format is cell-based. Particulars: 3-day incubation. The protocol:
as §1
XTT assay was performed as directed by the distributer. In brief, 2,3-Bis-(2-Methoxy-4-Nitro-5-Sulfophenyl)-2H-Tetrazolium-5-Carboxanilide (XTT, Invitrogen, 1 mg ml^−1) was added to culture media. 10 μl of phenazine methosulfate (PMS, 10 mM) was added to XTT/media solution (4 ml) just prior to the addition of XTT solution (50 uL) per well. Cells were incubated for 3 hours and the absorbance of the supernatant was measured at 450 nm. HAPI cells were imaged with a Live/Dead assay (Invitrogen). Supernatant solution was removed and replaced with 1/1000 dilutions for Propidium Iodide and Calcein AM in PBS. Cells were incubated for 1 hour and imaged with fluorescence microscopy.
Dox was loaded and released from PEDOT/SNP films as described above. 3T3 cells were cultured in 48 well plates for 2 days to reach semi-confluency, at which point the culture media was removed and replaced with serum-free media containing stock dox, released dox, or no dox. Cells were culture for 72 h, at which point the media was aspirated and the viability of the cells measured with XTT assay as described above.

A short description of series [4]: K3[Fe(CN)6] reduction (Prussian blue) antioxidant assay of released melatonin. The procedure:
1 mL of solution was removed and added to 0.8 mL of water, followed by the addition of 200 μL of FeCl3(0.01%, 6 μM), creating a deep blue dye. The absorbance of the resulting solution was measured at 700 nm.

Series [5] in a line: Electrically controlled dye loading and release from PEDOT/SNP films in PBS. The format is physicochemical. The text has this: Drug loading and release from conducting polymers with electrical control offers a precise method for pharmacological delivery directly to the site of implantation on demand. Mesoporous SNP were employed for drug delivery due to their exceptionally high loading volume. Rhodamine and fluorescein were used as model drugs for quantifying drug release profile. Fluorescein has a negative charge while rhodamine-b is positively charged, and the combination of rhodamine and fluorescein allow for a better understanding of how oppositely charged compounds can be released from PEDOT/SNP films. The drug loading and release mechanism is depicted in FIG. 2. Nanoparticles were suspended in an aqueous solution of fluorescein, rhodamine, or a combination of both, and sonicated to encourage the entry of the dye into the pores. Loaded sulfonate nanoparticles are then collected from solution by centrifuge then resuspended in an aqueous solution of EDOT. PEDOT/SNP films are polymerized under constant current, producing a film of polymer gated silica nanoparticles. An immediate observation made was the ease of polymerization when the dye was loaded into SNPs prior to polymerization vs without SNPs, with electrode potential being substantially lower for electro-polymerization of drug loaded SNP (FIG. 11). After polymerization, electrodes coated with the dye-loaded composite were examined under a fluorescent microscope to observe the release in phosphate buffered saline (PBS) in real time (FIG. 12). A cyclic voltage sweep from 0.8V to −0.6V was used to trigger drug release from the coatings. We observed a halo of fluorescence surrounding the electrode upon stimulation, which dissipates within seconds of the end of stimulation.
We further quantified the amount of release over number of stimuli from PEDOT/SNP composite and compared the performance to a control group of PEDOT loaded with the dye directly without the mesoporous SNP. Control and SNP dopant groups were polymerized to the same charge density. […]

In series [6] the test system is highly aggressive proliferating immortalized (HAPI) microglia cells. The series is described as follows: Live/Dead staining of cells on polymer substrate. Particulars: 2 days, Triton-X 0.2% positive control on TCPS. Type of series: cell-based. The procedure:
A cytotoxicity assessment was performed on the PEDOT/SNP composite. Both PEDOT^[51] and silica nanoparticles^[40] have each been successfully employed in in vivo applications. However, small changes to the surface chemistry of the silica nanoparticle warrant investigation into the potential for adverse biological interactions. The commonly employed polymer PEDOT/PSS itself has been previously characterized as non-toxic;^[52] and was used as an ideal reference for the toxicity testing of the PEDOT/SNP. The biocompatibility of the PEDOT/SNP surface was evaluated by directly culturing highly aggressive proliferating immortalized (HAPI) microglia cells on the substrate. After 2 days, XTT was used to measure to metabolic activity of the cells. […] A small degree of auto-fluorescence is detectable for both polymer coatings, resulting in a slight amount of red and green background. […] Given these findings, we can expect that the PEDOT/SNP surface is safe and non-toxic for acute experimentation, while chronic biocompatibility should still be evaluated. […]
XTT assay was performed as directed by the distributer. […] Cells were incubated for 3 hours and the absorbance of the supernatant was measured at 450 nm. […] Cells were incubated for 1 hour and imaged with fluorescence microscopy.

As for 6,7-dinitroquinoxaline-2,3-dione [DNQX], the “GCaMP fluorescence intensity during DNQX release vs prior” value with neural activity is reported as “significant decrease”. Moreover, the “duration of transient inhibition of sensory evoked neural activity” value in series [1] was less than 6 s.

Consider `COc1cccc2c1C(=O)c1c(O)c3c(c(O)c1C2=O)C[C@@](O)(C(=O)CO)C[C@@H]3O[C@H]1C[C@H](N)[C@H](O)[C@H](C)O1` [Dox, Doxorubicin], for which the “Dox released from PEDOT/SNP film” value in series [2] (20 stimulations) was determined as 1.44 μg cm^−2; in series [2] (200 stimulations) it was 7.4 μg cm^−2. Further, the “effect of released Dox vs concentration-matched stock Dox” value in series [3] is reported as “no difference”. Moreover, the “3T3 viability vs standard culture media” value in series [3] (diffusion control (0 cycles, passive diffusion 24 hours)) is given as “No significant difference”. The “3T3 viability vs control” value in series [3] (released Dox from 20 stimulations) and in series [3] (released Dox from 200 stimulations) was “significantly reduced the viability” each time.

`COc1ccc2[nH]cc(CCNC(C)=O)c2c1` [melatonin]: the “change in absorbance at 700 nm (antioxidant capacity)” value in series [4] (melatonin released from PEDOT/SNP film) and in series [4] (stock melatonin) was “significant change in the absorbance” in each case.

Take `CCN(CC)c1ccc2c(-c3ccccc3C(=O)O)c3ccc(=[N+](CC)CC)cc-3oc2c1` [rhodamine, rhodamine-b]: the “quantified fluorescent intensity during release vs after” value in series [5] (PBS, cyclic voltage sweep 0.8V to −0.6V, dye-loaded PEDOT/SNP) is recorded as “significantly higher”. The “dye release relative to control sample” value in series [5] (over 9,000 (fluorescein) and 5,000 (rhodamine) stimulations, control PEDOT loaded with dye without SNP) is on record as “substantial increase”. The “Overall drug loading increase when SNP used as a reservoir” value in series [5] (vs PEDOT loaded with the dye directly, same charge density) was 16.8 ×.

Turning to Triton-X, the “Live dead staining of the cells on the substrate” value in series [6] is given as “no viable cells”.
